Measurements reported in patent US20070134315A1, “Orally administrable extended release pellet and tablet formulations of a highly water soluble compound” (priority 2005, published 2007).
In brackets after ≈: the same amount, converted by molar mass.

Tests used:
[1] = Isothermal thermogravimetric analysis (TGA) of sublimation; format: physicochemical
Experimental: The temperature dependent physical instability of the drug substance was studied in detail in order to determine the appropriate pharmaceutical formulation processes and temperature ranges suitable for the preparation of the pharmaceutical compositions of isovaleramide. An automated thermogravimetric analysis (TGA) method was used to determine the relative rates of isovaleramide sublimation. Isothermal TGA was conducted at 30° C., 35° C., 40° C., 45° C., 50° C. and 60° C. for 24 hours. Samples were prepared by first taring a platinum TGA pan on the TGA system. A sample amount of isovaleramide of 10 mg-15 mg was then added to the pan and distributed evenly. The sample pan was then loaded onto the TGA autosampler for subsequent analysis. Samples were initially equilibrated at their respective isothermal temperature and then monitored for 24 hours. Data sampling was accomplished at a rate of 600 seconds/point. Sample replicates ranged from 1 to 3. TGA instrument and operating conditions were as follows: […]

[2] = Water solubility of isovaleramide and dose number; format: physicochemical
Experimental: The water solubility of the drug substance as used herein, is defined according to its dose number, Do, for oral drug delivery. The dose number for a drug is defined by the ratio of its dose concentration to its saturation solubility in a reference fluid according to the following calculation: [formula]
where: Mo is the dose of the drug (mg), Vo is the reference fluid volume (mL) and Cs is the saturation solubility of the drug in the reference fluid (mg/mL) at 37° C. Representative reference fluids for oral drug delivery are aqueous based solutions within the relevant physiologic pH range of the gastrointestinal tract (i.e., pH 1-pH 7.5). A representative reference fluid volume for oral drug delivery is 250 mL. A drug substance is considered to be highly soluble if at its highest dose the Do value is ≦1. […] The solubility of isovaleramide in water at 37° C. is approximately 70 mg/mL. The upper range of a single daily dose of isovaleramide could be 1200 mg to 2400 mg. The Do number range for isovaleramide, calculated using a reference volume of 250 mL and the single daily dose range of 1200 mg to 2400 mg, is 0.07 to 0.14.

CC(C)CC(N)=O [Isovaleramide, isovaleramide]
Reduction in Weight % ([1]; isothermal 30° C., 1 hr): 0.05% | Reduction in Weight % ([1]; isothermal 30° C., 3 hr): 0.12% | Reduction in Weight % ([1]; isothermal 30° C., 6 hr): 0.25% | Reduction in Weight % ([1]; isothermal 30° C., 9 hr): 0.41% | Reduction in Weight % ([1]; isothermal 30° C., 12 hr): 0.62% | Reduction in Weight % ([1]; isothermal 30° C., 15 hr): 0.82% | Reduction in Weight % ([1]; isothermal 30° C., 18 hr): 1.01% | Reduction in Weight % ([1]; isothermal 30° C., 21 hr): 1.20% | Reduction in Weight % ([1]; isothermal 30° C., 24 hr): 1.32% | Reduction in Weight % ([1]; isothermal 35° C., 1 hr, mean of three): 0.10% | Reduction in Weight % ([1]; isothermal 35° C., 3 hr, mean of three): 0.28% | Reduction in Weight % ([1]; isothermal 35° C., 6 hr, mean of three): 0.55% | Reduction in Weight % ([1]; isothermal 35° C., 9 hr, mean of three): 0.83% | Reduction in Weight % ([1]; isothermal 35° C., 12 hr, mean of three): 1.12% | Reduction in Weight % ([1]; isothermal 35° C., 15 hr, mean of three): 1.41% | Reduction in Weight % ([1]; isothermal 35° C., 18 hr, mean of three): 1.67% | Reduction in Weight % ([1]; isothermal 35° C., 21 hr, mean of three): 1.92% | Reduction in Weight % ([1]; isothermal 35° C., 24 hr, mean of three): 2.17% | Reduction in Weight % ([1]; isothermal 40° C., 1 hr, mean of three): 0.14% | Reduction in Weight % ([1]; isothermal 40° C., 3 hr, mean of three): 0.53% | Reduction in Weight % ([1]; isothermal 40° C., 6 hr, mean of three): 1.10% | Reduction in Weight % ([1]; isothermal 40° C., 9 hr, mean of three): 1.65% | Reduction in Weight % ([1]; isothermal 40° C., 12 hr, mean of three): 2.27% | Reduction in Weight % ([1]; isothermal 40° C., 15 hr, mean of three): 2.83% | Reduction in Weight % ([1]; isothermal 40° C., 18 hr, mean of three): 3.43% | Reduction in Weight % ([1]; isothermal 40° C., 21 hr, mean of three): 4.02% | Reduction in Weight % ([1]; isothermal 40° C., 24 hr, mean of three): 4.58% | Reduction in Weight % ([1]; isothermal 45° C., 1 hr): 0.27% | Reduction in Weight % ([1]; isothermal 45° C., 3 hr): 0.91% | Reduction in Weight % ([1]; isothermal 45° C., 6 hr): 1.97% | Reduction in Weight % ([1]; isothermal 45° C., 9 hr): 2.95% | Reduction in Weight % ([1]; isothermal 45° C., 12 hr): 3.95% | Reduction in Weight % ([1]; isothermal 45° C., 15 hr): 4.98% | Reduction in Weight % ([1]; isothermal 45° C., 18 hr): 6.02% | Reduction in Weight % ([1]; isothermal 45° C., 21 hr): 7.05% | Reduction in Weight % ([1]; isothermal 45° C., 24 hr): 8.01% | Reduction in Weight % ([1]; isothermal 50° C., 1 hr): 0.54% | Reduction in Weight % ([1]; isothermal 50° C., 3 hr): 1.65% | Reduction in Weight % ([1]; isothermal 50° C., 6 hr): 3.35% | Reduction in Weight % ([1]; isothermal 50° C., 9 hr): 5.05% | Reduction in Weight % ([1]; isothermal 50° C., 12 hr): 6.68% | Reduction in Weight % ([1]; isothermal 50° C., 15 hr): 8.35% | Reduction in Weight % ([1]; isothermal 50° C., 18 hr): 10.04% | Reduction in Weight % ([1]; isothermal 50° C., 21 hr): 11.77% | Reduction in Weight % ([1]; isothermal 50° C., 24 hr): 13.43% | Reduction in Weight % ([1]; isothermal 60° C., 1 hr, mean of three): 1.98% | Reduction in Weight % ([1]; isothermal 60° C., 3 hr, mean of three): 5.96% | Reduction in Weight % ([1]; isothermal 60° C., 6 hr, mean of three): 11.90% | Reduction in Weight % ([1]; isothermal 60° C., 9 hr, mean of three): 17.79% | Reduction in Weight % ([1]; isothermal 60° C., 12 hr, mean of three): 23.61% | Reduction in Weight % ([1]; isothermal 60° C., 15 hr, mean of three): 29.37% | Reduction in Weight % ([1]; isothermal 60° C., 18 hr, mean of three): 35.03% | Reduction in Weight % ([1]; isothermal 60° C., 21 hr, mean of three): 40.53% | Reduction in Weight % ([1]; isothermal 60° C., 24 hr, mean of three): 44.74% | pH dependence of solubility ([2]; physiologic pH range of the gastrointestinal tract): pH independent solubility | solubility ([2]; water, 37° C.): ~70 mg/mL (≈ 692 mM)
